Reference: patent US11339171B2, “MDM2 inhibitors” (Gan & Lee Pharmaceuticals, priority 2017, dated 2022)

Each molecule was assayed against T1, MDM2 (Homo sapiens, UniProt Q00987) (assay: Inhibition test of MDM2-P53 (GST-MDM2, Biotin-P53, Anti-GST-Tb, SA-XL665)).
T1 construct: made in house
T1 sequence (Q00987 whole entry): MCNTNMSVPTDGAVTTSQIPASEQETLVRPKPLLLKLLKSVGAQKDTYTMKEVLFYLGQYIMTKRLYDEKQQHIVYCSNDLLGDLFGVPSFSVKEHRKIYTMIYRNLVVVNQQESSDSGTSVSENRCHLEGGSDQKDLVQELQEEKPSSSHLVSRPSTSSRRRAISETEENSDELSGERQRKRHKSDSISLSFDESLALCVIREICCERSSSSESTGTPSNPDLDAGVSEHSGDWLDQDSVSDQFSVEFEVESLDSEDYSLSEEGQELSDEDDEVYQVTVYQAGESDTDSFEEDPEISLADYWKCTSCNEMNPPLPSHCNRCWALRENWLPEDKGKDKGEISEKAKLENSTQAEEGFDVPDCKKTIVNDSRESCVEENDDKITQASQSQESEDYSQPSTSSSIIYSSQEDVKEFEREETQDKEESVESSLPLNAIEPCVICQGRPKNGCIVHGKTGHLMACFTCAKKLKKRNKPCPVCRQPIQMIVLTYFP
Assay type: binding
In short: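 HTRF-type assay using 4 nM GST-MDM2 (final), Biotin-P53, SA-XL665 and anti-GST-Tb in PBS with 0.1% BSA, 5 mM DTT and 1 mM AEBSF. Compounds in 5-fold serial dilutions over twelve points; incubation 90 min at 25° C with shaking before plate-reader read-out.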
For COc1ncc(-c2nc3c(n2C2CC2)[C@]2(C(=O)Nc4cc(Cl)ccc42)N(c2cc(Cl)ccc2C)C3=O)c(OC)n1 [Example R-28, (R)-6-chloro-5′-(5-chloro-2-methylphenyl)-3′-cyclopropane-2′-(2,4-dimethoxypyrimidin-5-yl)-3′H-spiro[dihydroindole-3,4′-pyrrolo[3,4-d]imidazole]-2,6′(5′H)-dione], the IC50 was 3110 nM.
With CCc1ccc(OC)c(-c2nc3c(n2C(C)C)[C@]2(C(=O)Nc4cc(Cl)ccc42)N(c2cc(Cl)ccc2C)C3=O)c1 [Example R-37, (R)-6-chloro-5′-(5-chloro-2-methylphenyl)-2′-(5-ethyl-2-methoxyphenyl)-3′-isopropyl-3′H-spiro[dihydroindole-3,4′-pyrrolo[3,4-d]imidazole]-2,6′(5′H)-dione] the IC50 was 3110 nM.
With CCc1ccc(OC)c(-c2nc3c(n2C(C)C)[C@]2(C(=O)Nc4cc(Cl)ccc42)N(c2cccc(Cl)c2)C3=O)c1 [Example R-38, (R)-6-chloro-5′-(3-chlorophenyl)-2′-(5-ethyl-2-methoxyphenyl)-3′-isopropyl-3′H-spiro[dihydroindole-3,4′-pyrrolo[3,4-d]imidazole]-2,6′(5′H)-dione] the IC50 was 1120 nM.
For COc1ccc(-c2nc3c(n2C(C)C)[C@]2(C(=O)Nc4cc(Cl)ccc42)N(c2cc(Cl)cn(C)c2=O)C3=O)c(OC)c1 [Example R-39, (R)-6-chloro-5′-(5-chloro-1-methyl-2-oxo-1,2-dihydropyridin-3-yl)-2′-(2,4-dimethoxyphenyl)-3′-isopropyl-3′H-spiro[dihydroindole-3,4′-pyrrolo[3,4-d]imidazole]-2,6′(5′H)-dione], the IC50 was 1850 nM.
COc1ncc(-c2nc3c(n2C2CCC2)[C@]2(C(=O)Nc4cc(Cl)ccc42)N(c2cc(Cl)ccc2C)C3=O)c(OC)n1 [Example R-41, (R)-6-chloro-5′-(5-chloro-2-methylphenyl)-3′-cyclobutyl-2′-(2,4-dimethoxypyrimidin-5-yl)-3′H-spiro[dihydroindole-3,4′-pyrrolo[3,4-d]imidazole]-2,6′(5′H)-dione] showed an IC50 of 7320 nM.
COc1ccccc1-c1nc2c(n1C(C)C)[C@]1(C(=O)Nc3cc(Cl)ccc31)N(c1cc(Cl)cn(C)c1=O)C2=O [Example R-43, (R)-6-chloro-5′-(5-chloro-1-methyl-2-oxo-1,2-dihydropyridin-3-yl)-3′-isopropyl-2′-(2-methoxyphenyl)-3′H-spiro[dihydroindole-3,4′-pyrrolo[3,4-d]imidazole]-2,6′(5′H)-dione] gave an IC50 of 130 nM.
CNC(=O)c1ccc(-c2nc3c(n2C(C)C)[C@]2(C(=O)Nc4cc(Cl)ccc42)N(c2cc(Cl)ccc2C)C3=O)c(OC)c1 [Example R-54, (R)-4-(6-chloro-5′-(5-chloro-2-methylphenyl)-3′-isopropyl-2,6′-dioxo-5′,6′-dihydro-3′H-spiro[dihydroindole-3,4′-pyrrolo[3,4-d]imidazole]-2′-yl)-3-methoxy-N-methylbenzamide] gave an IC50 of 1960 nM.
Work on COc1ncc(-c2nc3c(n2C(C)C)[C@]2(C(=O)Nc4cc(Cl)ccc42)N(c2ccc(C(N)=O)c(Cl)c2)C3=O)c(OC)n1 [Example R-60, (R)-2-chloro-4-(6-chloro-2′-(2,4-dimethoxypyrimidin-5-yl)-3′-isopropyl-2,6′-dioxo-3′,6′-dihydro-5′H-spiro[dihydroindole-3,4′-pyrrolo[3,4-d]imidazole]-5′-yl)benzamide] yielded an IC50 of 1070 nM.
COc1ccc(N2C(=O)c3nc(-c4ccccc4OC)n(C(C)C)c3[C@]23C(=O)Nc2cc(Cl)ccc23)cc1Cl [Example R-63, (R)-6-chloro-5′-(3-chloro-4-methoxyphenyl)-3′-isopropyl-2′-(2-methoxyphenyl)-3′H-spiro[dihydroindole-3,4′-pyrrolo[3,4-d]imidazole]-2,6′(5′H)-dione] was tested, and the IC50 was 537 nM.
For COc1ccc(-c2nc3c(n2C(C)C)[C@]2(C(=O)Nc4cc(Cl)ccc42)N(c2cc(Cl)ccc2C)C3=O)cc1 [Example R-64, (R)-6-chloro-5′-(5-chloro-2-methylphenyl)-3′-isopropyl-2′-(4-methoxyphenyl)-3′H-spiro[dihydroindole-3,4′-pyrrolo[3,4-d]imidazole]-2,6′(5′H)-dione], the IC50 was 1020 nM.
COc1cc(OC)c(-c2nc3c(n2C(C)C)[C@]2(C(=O)Nc4cc(Cl)ccc42)N(c2ccc(C(N)=O)c(Cl)c2)C3=O)cn1 [Example R-65, (R)-2-chloro-4-(6-chloro-2′-(4,6-dimethoxypyridin-3-yl)-3′-isopropyl-2,6′-dioxo-3′,6′-dihydro-5′H-spiro[dihydroindole-3,4′-pyrrolo[3,4-d]imidazole]-5′-yl)benzamide] showed an IC50 of 498 nM.
COc1cc(C(=O)N(C)C)ccc1-c1nc2c(n1C(C)C)[C@]1(C(=O)Nc3cc(Cl)ccc31)N(c1cc(Cl)ccc1C)C2=O [Example R-68, (R)-4-(6-chloro-5′-(5-chloro-2-methylphenyl)-3′-isopropyl-2,6′-dioxo-5′,6′-dihydro-3′H-spiro[dihydroindole-3,4′-pyrrolo[3,4-d]imidazole]-2′-yl)-3-methoxy-N,N-dimethylbenzamide] showed an IC50 of 657 nM.
For COc1cc(N)ccc1-c1nc2c(n1C(C)C)[C@]1(C(=O)Nc3cc(Cl)ccc31)N(c1ccc(F)c(Cl)c1)C2=O [Example R-73, (R)-2′-(4-amino-2-methoxyphenyl)-6-chloro-5′-(3-chloro-4-fluorophenyl)-3′-isopropyl-3′H-spiro[dihydroindole-3,4′-pyrrolo[3,4-d]imidazole]-2,6′(5′H)-dione], the IC50 was 142 nM.
COc1c(F)cccc1-c1nc2c(n1C(C)C)[C@]1(C(=O)Nc3cc(Cl)ccc31)N(c1cc(Cl)ccc1C)C2=O [Example R-76, (R)-6-chloro-5′-(5-chloro-2-methylphenyl)-2′-(3-fluoro-2-methoxyphenyl)-3′-isopropyl-3′H-spiro[dihydroindole-3,4′-pyrrolo[3,4-d]imidazole]-2,6′(5′H)-dione] gave an IC50 of 579 nM.
COc1cc(C(N)=O)ccc1-c1nc2c(n1C(C)C)[C@]1(C(=O)Nc3cc(Cl)ccc31)N(c1cc(Cl)ccc1C)C2=O [Example R-77, (R)-4-(6-chloro-5′-(5-chloro-2-methylphenyl)-3′-isopropyl-2,6′-dioxo-5′,6′-dihydro-3′H-spiro[dihydroindole-3,4′-pyrrolo[3,4-d]imidazole]-2′-yl)-3-methoxybenzamide] gave an IC50 of 139 nM.
Molecule COc1cccc(OC)c1-c1nc2c(n1C(C)C)[C@]1(C(=O)Nc3cc(Cl)ccc31)N(c1cc(Cl)ccc1C)C2=O [Example R-79, (R)-6-chloro-5′-(5-chloro-2-methylphenyl)-2′-(2,6-dimethoxyphenyl)-3′-isopropyl-3′H-spiro[dihydroindole-3,4′-pyrrolo[3,4-d]imidazole]-2,6′(5′H)-dione] has an IC50 of 285 nM.
Molecule COc1ccc(-c2nc3c(n2C(C)C)[C@]2(C(=O)Nc4cc(Cl)ccc42)N(c2cc(Cl)ccc2F)C3=O)c(OC)c1 [Example R-80, (R)-6-chloro-5′-(5-chloro-2-fluorophenyl)-2′-(2,4-dimethoxyphenyl)-3′-isopropyl-3′H-spiro[dihydroindole-3,4′-pyrrolo[3,4-d]imidazole]-2,6′(5′H)-dione] has an IC50 of 363 nM.
COc1nc(N(C)C)ncc1-c1nc2c(n1C(C)C)[C@]1(C(=O)Nc3cc(Cl)ccc31)N(c1cc(Cl)ccc1C)C2=O [Example R-82, (R)-6-chloro-5′-(5-chloro-2-methylphenyl)-2′-(2-(dimethylamino)-4-methoxypyrimidin-5-yl)-3′-isopropyl-3′H-spiro[dihydroindole-3,4′-pyrrolo[3,4-d]imidazole]-2,6′(5′H)-dione] gave an IC50 of 394 nM.
With COc1cc(C2CC2)ccc1-c1nc2c(n1C(C)C)[C@]1(C(=O)Nc3cc(Cl)ccc31)N(c1cc(Cl)ccc1C)C2=O [Example R-86, (R)-6-chloro-5′-(5-chloro-2-methylphenyl)-2′-(4-cyclopropyl-2-methoxyphenyl)-3′-isopropyl-3′H-spiro[dihydroindole-3,4′-pyrrolo[3,4-d]imidazole]-2,6′(5′H)-dione] the IC50 was 142 nM.
Molecule CCOc1ccc(-c2nc3c(n2C(C)C)[C@]2(C(=O)Nc4cc(Cl)ccc42)N(c2cc(Cl)ccc2C)C3=O)c(OC)c1 [Example R-88, (R)-6-chloro-5′-(5-chloro-2-methylphenyl)-2′-(4-ethoxy-2-methoxyphenyl)-3′-isopropyl-3′H-spiro[dihydroindole-3,4′-pyrrolo[3,4-d]imidazole]-2,6′(5′H)-dione] has an IC50 of 399 nM.
In the case of COc1cc(C(C)C)ccc1-c1nc2c(n1C(C)C)[C@]1(C(=O)Nc3cc(Cl)ccc31)N(c1cc(Cl)cnc1C)C2=O [Example R-89, (R)-6-chloro-5′-(5-chloro-2-methylpyridin-3-yl)-3′-isopropyl-2′-(4-isopropyl-2-methoxyphenyl)-3′H-spiro[dihydroindole-3,4′-pyrrolo[3,4-d]imidazole]-2,6′(5′H)-dione], the IC50 is reported as 569 nM.
With COc1nc(N)ncc1-c1nc2c(n1C(C)C)[C@]1(C(=O)Nc3cc(Cl)ccc31)N(c1cc(Cl)ccc1C)C2=O [Example R-90, (R)-2′-(2-amino-4-methoxypyrimidin-5-yl)-6-chloro-5′-(5-chloro-2-methylphenyl)-3′-isopropyl-3′H-spiro[dihydroindole-3,4′-pyrrolo[3,4-d]imidazole]-2,6′(5′H)-dione] the IC50 was 310 nM.
COc1cc(C(C)C)ccc1-c1nc2c(n1C(C)C)[C@]1(C(=O)Nc3cc(Cl)ccc31)N(c1cccc(Cl)c1)C2=O [Example R-93, (R)-6-chloro-5′-(3-chlorophenyl)-3′-isopropyl-2′-(4-isopropyl-2-methoxyphenyl)-3′H-spiro[dihydroindole-3,4′-pyrrolo[3,4-d]imidazole]-2,6′(5′H)-dione] gave an IC50 of 658 nM.
CCOc1ccc(-c2nc3c(n2C(C)C)[C@]2(C(=O)Nc4cc(Cl)ccc42)N(c2cc(Cl)ccc2F)C3=O)c(OC)c1 [Example R-94, (R)-6-chloro-5′-(5-chloro-2-fluorophenyl)-2′-(4-ethoxy-2-methoxyphenyl)-3′-isopropyl-3′H-spiro[dihydroindole-3,4′-pyrrolo[3,4-d]imidazole]-2,6′(5′H)-dione] was tested, and the IC50 was 840 nM.
